Read-outs that look alike come from different tables or passages of the source.
Key:
[1] = biological target: GDP-bound KRAS protein (aa 1-169), containing both G12C and C118A amino acid substitutions (Homo sapiens (Human), UniProt P01116, C118A/G12C); test: Coupled Nucleotide Exchange Assay; assay type: biochemical
Procedure: For compounds in Table 9, the following assay conditions were employed:
Coupled Nucleotide Exchange Assay:
The assay plates were then read on a PerkinElmer EnVision Multilabel Reader, using AlphaScreen® technology, and data were analyzed using a 4-parameter logistic model to calculate IC50 values.

[2] = system: Phosphorylation of ERK1/2 in MIA PaCa-2 cells; test: Phospho-ERK1/2 MSD Assay; assay type: cell-based; conditions: Homo sapiens, MiaPaCa-2 cells
[3] = system: Phosphorylation of ERK1/2 in A549 cells; test: Phospho-ERK1/2 MSD Assay (A549); assay type: cell-based; conditions: Homo sapiens
[4] = read-out: Coupled Exchange IC50 (2 h), 2 h compound pre-incubation
[5] = read-out: Coupled Exchange IC50 (20 h), 20 h compound pre-incubation
[6] = MIA PaCa-2, 4 h, read-out: pERK IC50 (4 h, MiaPaCa-2), 4 h compound treatment
[7] = A549, 4 h, read-out: pERK IC50 (4 h, A549), 4 h compound treatment
[8] = read-out: Coupled Exchange IC50 (5 min), 5 min compound pre-incubation
[9] = MIA PaCa-2, read-out: pERK IC50 (4 h), 4 h compound treatment
[10] = read-out: pERK IC50 (4 h), 4 h compound treatment

Sequence of GDP-bound KRAS protein (aa 1-169), containing both G12C and C118A amino acid substitutions (P01116 other isoform, or with tags, fused parts or gaps G12C/C118A): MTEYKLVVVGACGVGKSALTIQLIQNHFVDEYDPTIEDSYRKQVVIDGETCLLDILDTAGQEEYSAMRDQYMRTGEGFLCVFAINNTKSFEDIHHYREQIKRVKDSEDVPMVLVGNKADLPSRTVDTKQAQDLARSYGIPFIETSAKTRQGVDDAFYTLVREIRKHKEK

In the case of `C=CC(=O)N1CC(NC(=O)Cn2c(C)c(C(=O)N3CCc4c(C)cc(Br)cc4C3)c3cc(Br)ccc32)C1` [Example 51], the IC50 [1, 4] is reported as 0.75 µM, the IC50 [1, 5] is reported as 0.18 µM and the IC50 [2, 6] is reported as 4.82 µM. It also gave an IC50 [3, 7] greater than 100 µM.
Molecule `C=CC(=O)N1CC(N(C)C(=O)Cn2c(C)c(C(=O)N3CCN(c4ccc(C#N)cn4)C[C@@H]3C)c3cc(Br)ccc32)C1` [Example 52] has an IC50 [1, 4] of 0.53 µM, an IC50 [2, 6] of 4.83 µM and an IC50 [3, 7] greater than 100 µM.
For `C=CC(=O)N1CC(N(C)C(=O)Cn2c(C)c(C(=O)N3CCN(c4ccc(C)cn4)CC3)c3cc(Cl)cc(C)c32)C1` [Example 53], the IC50 [1, 4] was 0.85 µM, the IC50 [1, 5] was 0.18 µM and the IC50 [2, 6] was 5 µM. The IC50 [3, 7] was greater than 100 µM.
Molecule `C=CC(=O)N1CC(NC(=O)Cn2c(C)c(-c3ccccc3CC)c3cc(Cl)ccc32)C1` [Example 54] has an IC50 [1, 8] of 4.37 µM, an IC50 [1, 4] of 0.65 µM and an IC50 [1, 5] of 0.2 µM. For the same molecule, the IC50 [2, 9] was 5.88 µM and the IC50 [3, 10] was greater than 33.3 µM.
`C=CC(=O)N1CC(NC(=O)Cn2c3ccc(Br)cc3c3ccc(Oc4cccnc4)nc32)C1` [Example 55] gave an IC50 [1, 4] of 0.95 µM, an IC50 [1, 5] of 0.23 µM and an IC50 [2, 9] of 5.93 µM. For the same molecule, the IC50 [3, 10] was greater than 100 µM.
`C=CC(=O)N1CC(NC(=O)Cn2c(C)c(-c3ccccc3Cc3ccccc3)c3cc(Cl)ccc32)C1` [Example 56] showed an IC50 [1, 8] of 4.77 µM, an IC50 [1, 4] of 0.88 µM and an IC50 [2, 9] of 6.17 µM. The IC50 [3, 10] was greater than 100 µM.
Work on `C=CC(=O)N1CC(NC(=O)Cn2c3ccc(Br)cc3c3ccc(Oc4ccccn4)nc32)C1` [Example 57] yielded an IC50 [1, 4] of 0.99 µM, an IC50 [1, 5] of 0.14 µM and an IC50 [2, 9] of 6.81 µM. For the same molecule, the IC50 [3, 10] was greater than 100 µM.
For `C=CC(=O)N1CC(NC(=O)Cn2c(C)c(C(=O)N3CCc4c(O)cccc4C3)c3cc(Br)ccc32)C1` [Example 58], the IC50 [1, 4] was 0.28 µM, the IC50 [1, 5] was 0.11 µM and the IC50 [2, 6] was 6.81 µM. It also gave an IC50 [3, 7] greater than 33.3 µM.
In the case of `C=CC(=O)N1CC(NC(=O)Cn2c(C)c(C(=O)N3CCc4ccccc4C3CC)c3cc(Br)cc(C)c32)C1` (stereo not drawn) [Example 59], the IC50 [1, 4] is reported as 0.81 µM, the IC50 [2, 6] is reported as 6.84 µM and the IC50 [3, 7] is reported as 45.9 µM.
In the case of `C=CC(=O)N1CC(NC(=O)Cn2cc(-c3ccccc3-c3ccccc3)c3cc(Br)cc(C)c32)C1` [Example 62], the IC50 [1, 4] is reported as 1.18 µM, the IC50 [1, 5] is reported as 0.25 µM and the IC50 [2, 9] is reported as 7.06 µM. For the same molecule, the IC50 [3, 10] was greater than 33.3 µM.
With `C=CC(=O)N1CC(N(C)C(=O)Cn2cc(I)c3cc(I)ccc32)C1` [Example 66] the IC50 [1, 8] was 19.5 µM, the IC50 [1, 4] was 2.41 µM and the IC50 [1, 5] was 0.1 µM. The IC50 [2, 9] was 8.48 µM and the IC50 [3, 10] was greater than 33.3 µM.
For `C=CC(=O)N1CC(NC(=O)Cn2c(C)c(-c3ccccc3-c3ccccc3)c3cc(Cl)ccc32)C1` [Example 67], the IC50 [1, 8] was 3.9 µM, the IC50 [1, 4] was 0.83 µM and the IC50 [1, 5] was 0.24 µM. It also gave an IC50 [2, 9] of 8.8 µM and an IC50 [3, 10] greater than 100 µM.
`C=CC(=O)N1CC(NC(=O)Cn2cc(C(=O)N3CCc4c(cccc4OC)C3)c3cc(Cl)cc(Cl)c32)C1` [Example 69] was tested, and the IC50 [1, 4] was 0.19 µM, the IC50 [1, 5] was 0.13 µM and the IC50 [2, 6] was 9.39 µM. For the same molecule, the IC50 [3, 7] was greater than 100 µM.
In the case of `C=CC(=O)N1CC(NC(=O)Cn2cc(I)c3ccc(Br)cc32)C1` [Example 70], the IC50 [1, 4] is reported as 8.96 µM, the IC50 [1, 5] is reported as 1.7 µM and the IC50 [2, 9] is reported as 9.94 µM. It also gave an IC50 [3, 10] greater than 100 µM.
`C=CC(=O)N1CC(NC(=O)Cn2c3ccccc3c3cc(Br)ccc32)C1` [Example 71] gave an IC50 [1, 4] of 3.51 µM, an IC50 [1, 5] of 0.52 µM and an IC50 [2, 9] of 10.6 µM. It also gave an IC50 [3, 10] greater than 100 µM.
`C=CC(=O)N1CC(NC(=O)Cn2cc(C(=O)N3CCc4c(C)cccc4C3)c3cc(Cl)cc(Cl)c32)C1` [Example 74] showed an IC50 [1, 4] of 0.22 µM, an IC50 [1, 5] of 0.17 µM and an IC50 [2, 6] of 11.1 µM. It also gave an IC50 [3, 7] greater than 100 µM.
In the case of `C=CC(=O)N1CC(NC(=O)Cn2c3ccc(Br)cc3c3c(Cl)ccnc32)C1` [Example 75], the IC50 [1, 4] is reported as 3.73 µM, the IC50 [1, 5] is reported as 0.43 µM and the IC50 [2, 9] is reported as 11.3 µM. For the same molecule, the IC50 [3, 10] was greater than 100 µM.
Molecule `C=CC(=O)N1CC(NC(=O)Cn2cc(C(=O)N3CCc4c(cccc4OC)C3)c3cc(Br)ccc32)C1` [Example 76] has an IC50 [1, 4] of 0.64 µM, an IC50 [1, 5] of 0.17 µM and an IC50 [2, 6] of 11.4 µM. The IC50 [3, 7] was greater than 100 µM.
Work on `C=CC(=O)N1CC(NC(=O)Cn2cc(-c3ccccc3C)c3cc(Cl)ccc32)C1` [Example 78] yielded an IC50 [1, 8] of 33.1 µM, an IC50 [1, 4] of 5.49 µM and an IC50 [1, 5] of 1.2 µM. The IC50 [2, 9] was 11.7 µM and the IC50 [3, 10] was greater than 100 µM.

From US11053226B2, “KRAS G12C inhibitors and methods of using the same” (Amgen Inc., priority 2018, dated 2021)
